From ChEMBL document CHEMBL1201862, “PubChem BioAssay data set” (2004)
Active and inactive are the calls of the source.

Tests used:
[1] = molecular target: Beta-2 adrenergic receptor (Homo sapiens, UniProt P07550); assay: beta2AR agonists driving receptor internalization, dose response, cell-based, FAP fluorogen, flow cytometry, cherry pick 1 (AID 588763); format: functional
Hexokinase-1 = molecular target: T1, Hexokinase-1 (Homo sapiens, UniProt P19367); assay: SAR analysis of small molecule inhibitors of hexokinase domain containing I (HKDC1) in the hexokinase 1 selectivity assay. [Related pubchem assays (depositor defined):AID493160, AID493190]; format: functional
T1 sequence (P19367 whole entry): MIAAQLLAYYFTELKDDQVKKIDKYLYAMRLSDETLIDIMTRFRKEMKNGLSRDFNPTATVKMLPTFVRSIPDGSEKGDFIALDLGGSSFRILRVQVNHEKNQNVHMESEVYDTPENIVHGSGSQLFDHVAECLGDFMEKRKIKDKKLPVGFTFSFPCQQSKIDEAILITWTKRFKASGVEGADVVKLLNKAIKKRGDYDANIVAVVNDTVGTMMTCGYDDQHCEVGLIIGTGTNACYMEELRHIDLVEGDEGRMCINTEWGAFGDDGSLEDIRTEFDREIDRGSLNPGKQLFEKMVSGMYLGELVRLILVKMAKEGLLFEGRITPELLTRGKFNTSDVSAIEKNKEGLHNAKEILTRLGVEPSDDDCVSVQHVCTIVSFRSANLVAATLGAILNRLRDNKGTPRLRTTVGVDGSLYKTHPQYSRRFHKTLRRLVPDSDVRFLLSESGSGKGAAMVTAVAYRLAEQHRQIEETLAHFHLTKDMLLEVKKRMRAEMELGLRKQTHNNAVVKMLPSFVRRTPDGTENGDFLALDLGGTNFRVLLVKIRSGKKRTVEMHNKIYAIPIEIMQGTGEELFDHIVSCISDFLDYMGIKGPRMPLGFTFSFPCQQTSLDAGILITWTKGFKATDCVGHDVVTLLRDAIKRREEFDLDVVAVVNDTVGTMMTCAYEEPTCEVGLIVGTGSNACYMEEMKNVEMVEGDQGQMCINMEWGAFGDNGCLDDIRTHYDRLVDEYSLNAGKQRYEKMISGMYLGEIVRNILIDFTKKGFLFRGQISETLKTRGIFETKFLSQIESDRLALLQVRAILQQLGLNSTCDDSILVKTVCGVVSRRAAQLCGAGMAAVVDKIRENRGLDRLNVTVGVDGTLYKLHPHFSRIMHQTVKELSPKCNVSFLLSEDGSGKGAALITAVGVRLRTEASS

Hexokinase HKDC1 = molecular target: T2, Hexokinase HKDC1 (Homo sapiens, UniProt Q2TB90); assay: SAR analysis of small molecule inhibitors of hexokinase domain containing I (HKDC1). [Related pubchem assays (depositor defined):AID493160, AID493190]; format: functional
T2 sequence (Q2TB90 whole entry): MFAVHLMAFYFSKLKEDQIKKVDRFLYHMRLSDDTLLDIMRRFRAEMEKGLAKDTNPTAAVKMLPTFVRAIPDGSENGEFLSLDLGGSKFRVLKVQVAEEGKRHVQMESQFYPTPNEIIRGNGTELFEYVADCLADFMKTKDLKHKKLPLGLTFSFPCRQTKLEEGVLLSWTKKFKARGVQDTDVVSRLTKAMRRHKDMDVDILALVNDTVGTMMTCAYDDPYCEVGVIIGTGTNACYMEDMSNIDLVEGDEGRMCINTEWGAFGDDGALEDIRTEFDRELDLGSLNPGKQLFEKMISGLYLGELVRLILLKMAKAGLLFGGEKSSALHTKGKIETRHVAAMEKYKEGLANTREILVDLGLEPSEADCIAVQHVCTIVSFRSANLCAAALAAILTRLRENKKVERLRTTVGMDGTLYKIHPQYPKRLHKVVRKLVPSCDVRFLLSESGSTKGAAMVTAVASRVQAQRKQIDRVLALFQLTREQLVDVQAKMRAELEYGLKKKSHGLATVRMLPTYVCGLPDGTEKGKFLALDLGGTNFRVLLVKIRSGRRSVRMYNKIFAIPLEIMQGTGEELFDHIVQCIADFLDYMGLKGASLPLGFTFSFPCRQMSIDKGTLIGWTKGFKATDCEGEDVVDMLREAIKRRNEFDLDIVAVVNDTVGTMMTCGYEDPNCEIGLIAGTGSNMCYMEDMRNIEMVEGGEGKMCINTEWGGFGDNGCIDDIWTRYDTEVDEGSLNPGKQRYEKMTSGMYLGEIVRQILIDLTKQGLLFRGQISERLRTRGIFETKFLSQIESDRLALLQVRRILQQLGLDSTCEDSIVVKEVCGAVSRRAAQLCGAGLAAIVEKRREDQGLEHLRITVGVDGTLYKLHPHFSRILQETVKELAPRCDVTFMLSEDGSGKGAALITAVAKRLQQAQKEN

Cytochrome P450 2C19 = Cytochrome P450 2C19 (Homo sapiens, UniProt P33261); assay: Cytochrome panel assay with activity outcomes. Panel member name: p450-cyp2c19 Compounds with AC50 equal or less than 10 uM are considered active; format: functional; conditions: read-out: AC50
Cytochrome P450 2D6 = Cytochrome P450 2D6 (Homo sapiens, UniProt P10635);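 further: CYP2D6 member of a cytochrome P450 panel assay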
cells [2] = format: functional, cell-based
cells [3] = format: functional, cell-based; remark: listed apart in the source
[4] = molecular target: Latent membrane protein 1 (Human herpesvirus 4 (strain B95-8), UniProt P03230); assay: TES1-eGFP NF-kB reporter inhibition versus Tet-On dsRED, dose response, selectivity assay for LMP1 NF-kB inhibitor project, imaging, HEK293T, dual-color eGFP/dsRED, cherry-picks (AID 588398); format: functional, cell-based
[5] = molecular target: T3, Corticotropin-releasing factor receptor 2/Corticotropin-releasing factor-binding protein (Homo sapiens, UniProt P24387+Q13324); assay: activators of CRF receptor 2 with binding protein – uHTS hits, confirmation (AID 602473); format: functional; conditions: read-out: EC50_Mean
T3 sequence (Q13324 whole entry): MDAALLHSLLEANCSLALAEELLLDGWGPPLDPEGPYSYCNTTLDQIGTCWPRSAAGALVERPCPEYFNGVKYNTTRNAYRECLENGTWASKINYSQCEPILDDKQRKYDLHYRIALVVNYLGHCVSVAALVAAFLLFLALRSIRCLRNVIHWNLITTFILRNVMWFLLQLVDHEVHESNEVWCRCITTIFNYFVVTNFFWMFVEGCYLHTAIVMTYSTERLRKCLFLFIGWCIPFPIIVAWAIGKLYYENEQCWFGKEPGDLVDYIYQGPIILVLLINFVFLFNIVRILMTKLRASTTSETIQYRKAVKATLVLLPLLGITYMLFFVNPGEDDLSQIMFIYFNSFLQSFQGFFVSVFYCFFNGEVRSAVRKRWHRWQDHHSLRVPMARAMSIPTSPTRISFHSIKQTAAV
T3 sequence (P24387 whole entry): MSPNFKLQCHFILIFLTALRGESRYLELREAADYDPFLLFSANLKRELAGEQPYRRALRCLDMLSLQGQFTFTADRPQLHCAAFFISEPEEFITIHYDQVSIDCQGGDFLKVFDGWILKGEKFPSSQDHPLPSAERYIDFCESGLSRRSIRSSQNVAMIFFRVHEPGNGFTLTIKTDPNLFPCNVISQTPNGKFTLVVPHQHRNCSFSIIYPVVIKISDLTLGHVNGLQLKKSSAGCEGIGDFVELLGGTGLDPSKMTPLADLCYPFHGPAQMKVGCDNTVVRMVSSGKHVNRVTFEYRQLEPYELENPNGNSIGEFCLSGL

[6] = Luminescence Cell-Based Dose Response HTS to Identify Inhibitors of 5'UTR Stem-Loop Driven Prion Protein mRNA Translation in H4 Neuroglioblastoma Cells. [Related pubchem assays: 1827 (Project Summary), 1813 (Primary HTS)]; format: functional
INS1 = assay: beta cell apoptosis inhibitors, cytokine rescue, dose response, luminescence, retest (AID 449756); format: functional, cell-based; conditions: Rattus norvegicus;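 further: cell death triggered by IL-1 beta plus TNF-alpha plus IFN-gamma mixture; protective hits raise ATP signal compared with cytokine alone wells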
[7] = inhibitors of firefly luciferase expression or activity, dose response, H4 neuroglioma cells, luminescence (AID 1990); format: functional, cell-based
[8] = molecular target: T4, Heat shock factor protein 1 (Mus musculus, UniProt P38532); assay: inhibition of MG132-induced HSE-luciferase signal, confirmation, cell-based, NIH3T3, luminescence, dose retest (AID 2382); format: functional;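 further: NIH3T3 fibroblasts with HSF1-driven luciferase reporter stressed by proteasome inhibitor MG132; luminescence from HSF1-driven luciferase expression after 8 hours of MG132 stress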
T4 sequence (P38532 whole entry): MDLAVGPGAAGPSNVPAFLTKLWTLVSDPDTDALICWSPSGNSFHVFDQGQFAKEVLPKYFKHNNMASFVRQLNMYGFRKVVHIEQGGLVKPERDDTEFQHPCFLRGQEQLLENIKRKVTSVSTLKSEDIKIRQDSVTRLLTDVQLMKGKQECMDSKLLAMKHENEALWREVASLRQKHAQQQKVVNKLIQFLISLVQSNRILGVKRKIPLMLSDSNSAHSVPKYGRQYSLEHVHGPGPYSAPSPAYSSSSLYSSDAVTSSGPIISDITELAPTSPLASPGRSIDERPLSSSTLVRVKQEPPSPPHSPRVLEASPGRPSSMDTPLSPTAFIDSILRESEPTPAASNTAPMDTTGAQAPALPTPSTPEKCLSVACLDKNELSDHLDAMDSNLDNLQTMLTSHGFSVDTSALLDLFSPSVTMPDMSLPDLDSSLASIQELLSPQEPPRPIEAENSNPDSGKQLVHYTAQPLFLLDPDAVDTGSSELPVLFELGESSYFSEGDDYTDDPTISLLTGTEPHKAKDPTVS

[9] = inhibitors of SNCA 5'UTR-driven reporter translation, confirmation, H4 neuroglioma cells, luminescence (AID 1988); format: functional, cell-based
[10] = insulin promoter down-regulators in MIN6 cells, imaging, high-content screening, mouse beta cells (AID 1628); format: functional
HEK293 = assay: inhibitors of LMP1-driven NF-kB reporter, dose response, cell-based, HEK293, luciferase, cherry-pick (AID 588343); format: functional; conditions: Homo sapiens
[11] = cytotoxicity in MIN6 insulinoma cells, dose response, cytotoxicity control, cell-based, mouse insulinoma (AID 2122); format: functional;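 further: confirmatory high-throughput counterscreen run to flag cytotoxic compounds; mouse MIN-6 beta cells carrying an insulin promoter eGFP reporter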

Beta-2 adrenergic receptor, sequence (P07550 whole entry, the tested form may be a part): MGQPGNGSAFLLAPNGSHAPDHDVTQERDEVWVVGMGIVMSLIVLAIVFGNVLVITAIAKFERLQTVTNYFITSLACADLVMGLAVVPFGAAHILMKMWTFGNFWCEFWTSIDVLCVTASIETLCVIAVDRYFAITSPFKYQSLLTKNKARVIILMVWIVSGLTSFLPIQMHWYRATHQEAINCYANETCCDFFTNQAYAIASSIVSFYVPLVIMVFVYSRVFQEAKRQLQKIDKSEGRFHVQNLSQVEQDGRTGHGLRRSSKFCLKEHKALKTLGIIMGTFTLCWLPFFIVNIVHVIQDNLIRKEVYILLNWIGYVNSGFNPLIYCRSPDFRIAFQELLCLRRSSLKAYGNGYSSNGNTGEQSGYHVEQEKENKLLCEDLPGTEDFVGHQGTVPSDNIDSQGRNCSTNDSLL
Latent membrane protein 1, sequence (P03230 whole entry): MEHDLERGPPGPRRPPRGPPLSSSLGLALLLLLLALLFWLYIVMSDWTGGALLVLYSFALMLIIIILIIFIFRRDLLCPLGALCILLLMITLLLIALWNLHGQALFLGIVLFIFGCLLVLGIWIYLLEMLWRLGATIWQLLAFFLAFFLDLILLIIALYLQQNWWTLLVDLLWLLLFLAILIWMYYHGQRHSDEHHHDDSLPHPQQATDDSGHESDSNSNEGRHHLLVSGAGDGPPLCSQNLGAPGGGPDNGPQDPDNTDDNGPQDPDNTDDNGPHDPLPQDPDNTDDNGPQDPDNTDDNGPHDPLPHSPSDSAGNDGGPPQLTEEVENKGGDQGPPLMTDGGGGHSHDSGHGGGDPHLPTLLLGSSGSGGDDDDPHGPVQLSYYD
Cytochrome P450 2D6, sequence (P10635 whole entry): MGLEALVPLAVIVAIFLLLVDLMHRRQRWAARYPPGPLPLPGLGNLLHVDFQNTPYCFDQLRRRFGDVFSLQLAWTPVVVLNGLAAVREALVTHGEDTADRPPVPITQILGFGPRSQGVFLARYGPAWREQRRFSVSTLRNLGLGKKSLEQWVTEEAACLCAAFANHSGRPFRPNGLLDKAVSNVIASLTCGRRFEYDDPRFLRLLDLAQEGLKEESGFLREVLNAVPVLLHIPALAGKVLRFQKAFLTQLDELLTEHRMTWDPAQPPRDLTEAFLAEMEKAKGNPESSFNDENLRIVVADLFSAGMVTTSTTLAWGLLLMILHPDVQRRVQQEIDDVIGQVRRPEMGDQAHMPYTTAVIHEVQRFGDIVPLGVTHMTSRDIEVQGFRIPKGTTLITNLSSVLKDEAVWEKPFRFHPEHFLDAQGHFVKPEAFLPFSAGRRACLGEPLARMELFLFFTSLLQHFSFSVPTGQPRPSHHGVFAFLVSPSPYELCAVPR
Cytochrome P450 2C19, sequence (P33261 whole entry): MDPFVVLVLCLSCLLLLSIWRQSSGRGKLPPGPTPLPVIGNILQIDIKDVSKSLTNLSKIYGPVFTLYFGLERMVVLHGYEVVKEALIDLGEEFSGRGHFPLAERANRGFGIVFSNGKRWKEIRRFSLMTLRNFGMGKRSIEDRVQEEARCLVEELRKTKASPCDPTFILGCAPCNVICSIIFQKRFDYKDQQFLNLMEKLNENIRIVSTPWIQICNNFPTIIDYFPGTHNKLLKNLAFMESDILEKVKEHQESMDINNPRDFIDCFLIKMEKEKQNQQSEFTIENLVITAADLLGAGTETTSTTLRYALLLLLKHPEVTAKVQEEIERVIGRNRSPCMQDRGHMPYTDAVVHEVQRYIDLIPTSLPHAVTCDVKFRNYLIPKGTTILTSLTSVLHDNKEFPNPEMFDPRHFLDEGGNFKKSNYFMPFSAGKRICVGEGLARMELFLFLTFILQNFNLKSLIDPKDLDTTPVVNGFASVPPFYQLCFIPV

Q: For C=CCn1c(CCNC(=O)c2cccs2)nnc1SCC(=O)c1cccc([N+](=O)[O-])c1, which EC50 [1] is on record?
A: The EC50 was 0.133 µM (active).

Q: Which results are given for Cc1ccc(/C=C/c2nc3ccccc3c(=O)n2CCc2ccccc2)cc1?
A: IC50 (Hexokinase-1): > 80 µM (inactive); IC50 (Hexokinase HKDC1): > 80 µM (inactive)

Q: What does the source list for COc1ccccc1-c1cc(C(F)(F)F)nc(S(=O)(=O)CCCC(=O)NC(C)C)n1?
A: AC50 (Cytochrome P450 2C19): 6.31 µM (inconclusive); AC50 (Cytochrome P450 2D6): inconclusive; EC50 (cells [2]): > 350 µM (not active); EC50 [1]: 9.33 µM (active); EC50 (cells [3]): 51.6 µM (active)

Q: For O=c1c([N+](=O)[O-])cn(Cc2ccccc2)c(=O)n1Cc1ccccc1, which AC50 [4] is on record?
A: Its AC50 is 108 µM (active).

Q: What about the EC50 [5] of the same compound?
A: The EC50 was > 53 µM (inactive).

Q: For O=C(N/N=C/c1ccc[nH]1)c1ccc(COc2cccc3cccnc23)cc1, which AC50 [4] is on record?
A: The AC50 was 9.15 µM (active).

Q: What about the EC50 [6] of the same compound?
A: Its EC50 is > 120 µM (not active).

Q: And the AC50 (INS1)?
A: Its AC50 is 1.05 µM (active).

Q: What about the EC50 [7] of the same compound?
A: Its EC50 is 8.34 µM (active).

Q: What about the EC50 [8] of the same compound?
A: The EC50 was 0.16 µM (active).

Q: And the EC50 [9]?
A: Its EC50 is 9.79 µM (active).

Q: And the IC50 [10]?
A: Its IC50 is 0.65 µM (active).

Q: And the AC50 (HEK293)?
A: Its AC50 is 6.13 µM (active).

Q: What about the IC50 [11] of the same compound?
A: The IC50 was 0.574 µM (active).
